Source: patent US20130209543A1, “ENHANCED TREATMENT REGIMENS USING MTOR INHIBITORS” (Intellikine LLC, priority 2011, published 2013)

Assay: Phase I clinical trial: grade 3 or greater treatment-emergent adverse events (Table 9)
Format: in vivo
Description: Adult patients with histologically confirmed advanced solid tumors were enrolled in a 3+3 dose escalation Phase I study evaluating 3 intermittent schedules of administration for compound A: QW (once weekly), QD×3d QW (3 days on 4 days off), and QD×5d QW (5 days on 2 days off), in comparison with daily dosing (QD). Safety, maximum tolerated dose (MTD), pharmacokinetics (PK) and preliminary antitumor activity were evaluated.
Pharmacodynamic (PD) endpoints were evaluated in surrogate (peripheral blood cells [PBCs], skin) and tumor tissues for the phosphorylation of TORC1-dependent markers (4EBP1/S6), and TORC2-dependent markers (AKT/PRAS40). 50 patients were treated in 3 intermittent dosing regimens; 21 in 6 cohorts ranging 7-40 mg QW, 20 in 5 cohorts ranging 6-20 mg QD×3d QW, and 9 in 3 cohorts ranging 7-13 mg QD×5d QW. […] The MTD for intermittent dosing was not reached. All adverse events (AEs) reported were reversible. The most common (≧20%, n=35) AEs considered possibly related to compound A reported in all 3 dosing regimens included nausea (51%), hyperglycemia (37%), mucosal inflammation (29%), rash (23%), asthenia (23%), vomiting (26%), and diarrhea (20%). The majority of AEs considered possibly related to compound A in any regimen were Grade 1 or 2. The only reported Grade≧3 AE (≧5%) possibly related to compound A in 3 regimens was lymphopenia (6%). Tables 4-9 show summaries of observed adverse events for various treatment regimens of the invention.

CC(C)n1nc(-c2ccc3oc(N)nc3c2)c2c(N)ncnc21 [compound A]
0 (0%): Aspartate aminotransferase increased, Grade 3 or greater TEAE (Total QD Dosing, N = 25) | Asthenia, grade 3 or greater TEAE (Total QD Dosing, N = 25) | Disease progression, grade 3 or greater TEAE (Total QD Dosing, N = 25) | Gamma-glutamyltransferase increased, Grade 3 or greater TEAE (Total QD Dosing, N = 25) | Gastroenteritis, Grade 3 or greater TEAE (Total QD Dosing, N = 25) | Rash macular, Grade 3 or greater TEAE (Total QD Dosing, N = 25) | Urinary tract infection, Grade 3 or greater TEAE (Total QD Dosing, N = 25) | Abdominal pain upper, Grade 3 or greater TEAE (Total QDx3d QW, N = 14) | Anaemia, grade 3 or greater TEAE (Total QDx3d QW, N = 14) | Aspartate aminotransferase increased, Grade 3 or greater TEAE (Total QDx3d QW, N = 14) | Catheter related infection, Grade 3 or greater TEAE (Total QDx3d QW, N = 14) | Cellulitis, Grade 3 or greater TEAE (Total QDx3d QW, N = 14) | Enterocutaneous fistula, Grade 3 or greater TEAE (Total QDx3d QW, N = 14) | Hypokalaemia, grade 3 or greater TEAE (Total QDx3d QW, N = 14) | Hyponatraemia, grade 3 or greater TEAE (Total QDx3d QW, N = 14) | Pancreatitis acute, Grade 3 or greater TEAE (Total QDx3d QW, N = 14) | Pleural effusion, Grade 3 or greater TEAE (Total QDx3d QW, N = 14) | Pruritus, grade 3 or greater TEAE (Total QDx3d QW, N = 14) | Rash, grade 3 or greater TEAE (Total QDx3d QW, N = 14) | Somnolence, Grade 3 or greater TEAE (Total QDx3d QW, N = 14) | Thrombocytopenia, grade 3 or greater TEAE (Total QDx3d QW, N = 14) | Abdominal pain upper, Grade 3 or greater TEAE (Total QDx5d QW, N = 6) | Anaemia, grade 3 or greater TEAE (Total QDx5d QW, N = 6) | Aspartate aminotransferase increased, Grade 3 or greater TEAE (Total QDx5d QW, N = 6) | Asthenia, grade 3 or greater TEAE (Total QDx5d QW, N = 6) | Catheter related infection, Grade 3 or greater TEAE (Total QDx5d QW, N = 6) | Cellulitis, Grade 3 or greater TEAE (Total QDx5d QW, N = 6) | Diarrhoea, grade 3 or greater TEAE (Total QDx5d QW, N = 6) | Disease progression, grade 3 or greater TEAE (Total QDx5d QW, N = 6) | Enterocutaneous fistula, Grade 3 or greater TEAE (Total QDx5d QW, N = 6) | Gamma-glutamyltransferase increased, Grade 3 or greater TEAE (Total QDx5d QW, N = 6) | Gastroenteritis, Grade 3 or greater TEAE (Total QDx5d QW, N = 6) | Hyperglycaemia, grade 3 or greater TEAE (Total QDx5d QW, N = 6) | Hypokalaemia, grade 3 or greater TEAE (Total QDx5d QW, N = 6) | Hyponatraemia, grade 3 or greater TEAE (Total QDx5d QW, N = 6) | Lymphopenia, grade 3 or greater TEAE (Total QDx5d QW, N = 6) | Pancreatitis acute, Grade 3 or greater TEAE (Total QDx5d QW, N = 6) | Patients Reporting at Least One Grade 3 or Greater TEAE (Total QDx5d QW, N = 6) | Pleural effusion, Grade 3 or greater TEAE (Total QDx5d QW, N = 6) | Pruritus, grade 3 or greater TEAE (Total QDx5d QW, N = 6) | Rash macular, Grade 3 or greater TEAE (Total QDx5d QW, N = 6) | Rash, grade 3 or greater TEAE (Total QDx5d QW, N = 6) | Somnolence, Grade 3 or greater TEAE (Total QDx5d QW, N = 6) | Thrombocytopenia, grade 3 or greater TEAE (Total QDx5d QW, N = 6) | Urinary tract infection, Grade 3 or greater TEAE (Total QDx5d QW, N = 6) | Abdominal pain upper, Grade 3 or greater TEAE (Total QW Dosing, N = 15) | Anaemia, grade 3 or greater TEAE (Total QW Dosing, N = 15) | Asthenia, grade 3 or greater TEAE (Total QW Dosing, N = 15) | Catheter related infection, Grade 3 or greater TEAE (Total QW Dosing, N = 15) | Cellulitis, Grade 3 or greater TEAE (Total QW Dosing, N = 15) | Disease progression, grade 3 or greater TEAE (Total QW Dosing, N = 15) | Enterocutaneous fistula, Grade 3 or greater TEAE (Total QW Dosing, N = 15) | Gastroenteritis, Grade 3 or greater TEAE (Total QW Dosing, N = 15) | Hyperglycaemia, grade 3 or greater TEAE (Total QW Dosing, N = 15) | Hypokalaemia, grade 3 or greater TEAE (Total QW Dosing, N = 15) | Hyponatraemia, grade 3 or greater TEAE (Total QW Dosing, N = 15) | Pancreatitis acute, Grade 3 or greater TEAE (Total QW Dosing, N = 15) | Pleural effusion, Grade 3 or greater TEAE (Total QW Dosing, N = 15) | Pruritus, grade 3 or greater TEAE (Total QW Dosing, N = 15) | Rash macular, Grade 3 or greater TEAE (Total QW Dosing, N = 15) | Rash, grade 3 or greater TEAE (Total QW Dosing, N = 15) | Somnolence, Grade 3 or greater TEAE (Total QW Dosing, N = 15) | Thrombocytopenia, grade 3 or greater TEAE (Total QW Dosing, N = 15) | Urinary tract infection, Grade 3 or greater TEAE (Total QW Dosing, N = 15)
6%: Grade≧3 AE (≧5%) possibly related: lymphopenia (3 regimens)
1 (2%): Abdominal pain upper, Grade 3 or greater TEAE (Total, N = 60) | Anaemia, grade 3 or greater TEAE (Total, N = 60) | Aspartate aminotransferase increased, Grade 3 or greater TEAE (Total, N = 60) | Asthenia, grade 3 or greater TEAE (Total, N = 60) | Catheter related infection, Grade 3 or greater TEAE (Total, N = 60) | Cellulitis, Grade 3 or greater TEAE (Total, N = 60) | Disease progression, grade 3 or greater TEAE (Total, N = 60) | Enterocutaneous fistula, Grade 3 or greater TEAE (Total, N = 60) | Gastroenteritis, Grade 3 or greater TEAE (Total, N = 60) | Pancreatitis acute, Grade 3 or greater TEAE (Total, N = 60) | Pleural effusion, Grade 3 or greater TEAE (Total, N = 60) | Rash macular, Grade 3 or greater TEAE (Total, N = 60) | Somnolence, Grade 3 or greater TEAE (Total, N = 60) | Urinary tract infection, Grade 3 or greater TEAE (Total, N = 60)
2 (8%): Hypokalaemia, grade 3 or greater TEAE (Total QD Dosing, N = 25) | Hyponatraemia, grade 3 or greater TEAE (Total QD Dosing, N = 25) | Lymphopenia, grade 3 or greater TEAE (Total QD Dosing, N = 25) | Pruritus, grade 3 or greater TEAE (Total QD Dosing, N = 25) | Thrombocytopenia, grade 3 or greater TEAE (Total QD Dosing, N = 25)
2 (3%): Gamma-glutamyltransferase increased, Grade 3 or greater TEAE (Total, N = 60) | Hypokalaemia, grade 3 or greater TEAE (Total, N = 60) | Hyponatraemia, grade 3 or greater TEAE (Total, N = 60) | Pruritus, grade 3 or greater TEAE (Total, N = 60) | Thrombocytopenia, grade 3 or greater TEAE (Total, N = 60)
5 (8%): Hyperglycaemia, grade 3 or greater TEAE (Total, N = 60)
7 (12%): Rash, grade 3 or greater TEAE (Total, N = 60)
4 (16%): Hyperglycaemia, grade 3 or greater TEAE (Total QD Dosing, N = 25)
3 (5%): Diarrhoea, grade 3 or greater TEAE (Total, N = 60)
4 (7%): Lymphopenia, grade 3 or greater TEAE (Total, N = 60)
1 (4%): Abdominal pain upper, Grade 3 or greater TEAE (Total QD Dosing, N = 25) | Anaemia, grade 3 or greater TEAE (Total QD Dosing, N = 25) | Catheter related infection, Grade 3 or greater TEAE (Total QD Dosing, N = 25) | Cellulitis, Grade 3 or greater TEAE (Total QD Dosing, N = 25) | Diarrhoea, grade 3 or greater TEAE (Total QD Dosing, N = 25) | Enterocutaneous fistula, Grade 3 or greater TEAE (Total QD Dosing, N = 25) | Pancreatitis acute, Grade 3 or greater TEAE (Total QD Dosing, N = 25) | Pleural effusion, Grade 3 or greater TEAE (Total QD Dosing, N = 25) | Somnolence, Grade 3 or greater TEAE (Total QD Dosing, N = 25)
7 (50%): Patients Reporting at Least One Grade 3 or Greater TEAE (Total QDx3d QW, N = 14)
3 (20%): Patients Reporting at Least One Grade 3 or Greater TEAE (Total QW Dosing, N = 15)
7 (28%): Rash, grade 3 or greater TEAE (Total QD Dosing, N = 25)
1 (7%): Asthenia, grade 3 or greater TEAE (Total QDx3d QW, N = 14) | Diarrhoea, grade 3 or greater TEAE (Total QDx3d QW, N = 14) | Disease progression, grade 3 or greater TEAE (Total QDx3d QW, N = 14) | Gamma-glutamyltransferase increased, Grade 3 or greater TEAE (Total QDx3d QW, N = 14) | Gastroenteritis, Grade 3 or greater TEAE (Total QDx3d QW, N = 14) | Hyperglycaemia, grade 3 or greater TEAE (Total QDx3d QW, N = 14) | Lymphopenia, grade 3 or greater TEAE (Total QDx3d QW, N = 14) | Rash macular, Grade 3 or greater TEAE (Total QDx3d QW, N = 14) | Urinary tract infection, Grade 3 or greater TEAE (Total QDx3d QW, N = 14) | Aspartate aminotransferase increased, Grade 3 or greater TEAE (Total QW Dosing, N = 15) | Diarrhoea, grade 3 or greater TEAE (Total QW Dosing, N = 15) | Gamma-glutamyltransferase increased, Grade 3 or greater TEAE (Total QW Dosing, N = 15) | Lymphopenia, grade 3 or greater TEAE (Total QW Dosing, N = 15)
